Source: publication PMC11855827, “High-Throughput Screening of Five Compound Libraries for Anthelmintic Activity and Toxicity Leads to the Discovery of Two Flavonoid Compounds” (International Journal of Molecular Sciences, 2025)
Where “and” joins values, the source holds several entries; their conditions need not be identical. Equal values may be shown once. Read-outs that look alike come from different tables or passages of the source. Where no end group is shown, it is not given here.

Tested on: C. elegans
[1] = Table S2, C. elegans SS assay, 110 μM, 0 h, averages of 4 data points
[2] = Table S2, C. elegans SS assay, 110 μM, 24 h, averages of 4 data points

Compound	Percentage of motility inhibition 0 h [1]	Percentage of motility inhibition 24 h [2]	other results
CC1=C(/C=C/C(C)=C/C=C/C(C)=C/C=C/C=C(C)/C=C/C=C(\C)C=O)C(C)(C)CCC1 [β-Apo-8'-carotenal]	12%	1%	
C=C(CCC=C(C)C)[C@@H]1CC=C(C)CC1 [β-Bisabolene]	8%	57%	
CC1=C(CO)C(C)(C)CCC1 [β-Cyclogeraniol]	15%	48%	
C=C[C@]1(C)CC[C@@H](C(=C)C)C[C@H]1C(=C)C [β-Elemene]	9% and 7%		
COc1ccc(-c2oc3c4c(cc(O)c3c(=O)c2O)OC(C)(C)CC4)cc1 [β‐Anhydroicaritin]	5%	16%	
N[C@@H](CCl)C(=O)O [β‐Chloro‐L‐alanine]	27%	7%	
(+)-Catechin hydrate	12% and 8%		
(+)‐Sparteine	5%	13%	
(+)‐Sparteine (sulfate pentahydrate)	0%	0%	
(-)-Huperzine A		7% and 15%	
(±)-Huperzine A	0%	16%	
(±)‐10‐Hydroxycamptothecin	0%	0%	
(±)‐Naringenin	0%	18%	
(‐)‐Alkannin	12%	7%	
(‐)‐Epicatechin gallate	5%	8%	
(‐)‐Epigalloca techin	3%	0%	
(‐)‐Gallocatechin gallate	60%	5%	
(‐)‐Sparteine	0%	4%	
(−)-Myrtenal	21%	14%	
Alisol B 23-acetate	0%	2%	
Alpinetin	1%	14%	
Amarogentin	2%	8%	
Aprotinin	4%	9%	
Asiaticoside	6%	0%	

Compound	Percentage of motility inhibition 0 h [1]	Percentage of motility inhibition 24 h [2]	other results
Astragaloside I	13%	23%	
Avermectin B1 [reference compound]		41%	Inhibition (%) 110 μM (0 h): 81 ± 1%; Inhibition (%) 110 μM (24 h): 42 ± 1%
Bacopaside II	7%	9%	
Bavachinin	0%	2%	
Benzalkonium chloride	50%	58%	
Brusatol	48%	37%	
Bulleyaconitine A	26%	26%	
Capreomycin (sulfate)	12%	0%	
Capsaicin β‐D‐glucopyrano side			Percentage of motility inhibition 0 h (110 µM): 3%; Percentage of motility inhibition 24 h (110 µM): 0%
Clinodiside A	1%	0%	
Colistin (sulfate)	14%	0%	
Corylin	25%	15%	
Cucurbitacin B	5%	0%	
Cycleanine	4%	4%	
Dictamine			Percentage of motility inhibition 0 h (110 µM): 0%; Percentage of motility inhibition 24 h (110 µM): 20%
Diniconazole	19%	5%	
Dryocrassin ABBA	12%	18%	
Echinocystic acid	45%	35%	
Enfuvirtide			Percentage of motility inhibition 0 h (0 h, 110 μM): 36%; Percentage of motility inhibition 24 h (24 h, 110 µM): 30%
Engeletin	11%	9%	
Epimedin A	13%	13%	
Eprinomectin [reference compound]	96%	86%	Inhibition (%) 110 μM (0 h): 91 ± 3%; Inhibition (%) 110 μM (24 h): 92 ± 3%
Escin		8% and 6%	
Evocarpine	8%	20%	

Compound	Percentage of motility inhibition 0 h [1]	Percentage of motility inhibition 24 h [2]	other results
Evodiamine	0%	23%	
Ginkgolide B	4%	7%	
Ginkgolide C	12%	0%	
Ginkgolide J	0%	25%	
Gypsogenin-3-O-glucuronide	50%	10%	
Handelin	0%	14%	
Harpagide	9%	13%	
Hosenkoside C	0%	5%	
Hyaluronic acid	0%	4%	
Hydrastinine (hydrochloride)	7%	0%	
Hydroxysafflor yellow A			Percentage of motility inhibition 0 h (110 µM): 36%; Percentage of motility inhibition 24 h (110 µM): 12%
Ingenol-5,20-acetonide	4%	6%	
Inulin	4%	17%	
Isoliquiritin apioside	47%	8%	
Kansuiphorin C	5%	29%	
Kukoamine B	8%	0%	
Larixyl acetate	0%	44%	
Liensinine (Diperchlorate)	0%	0%	
Liensinine (perchlorate)	7%	0%	
Madecassoside	12%	1%	
Milbemycin [reference compound]			Inhibition (%) 110 μM (0 h): 100 ± 0%; Inhibition (%) 110 μM (24 h): 86 ± 14%
Miquelianin	1%	0%	
Mogroside II-A	0%	14%	
Mogroside IIA1	6%	47%	

Compound	Percentage of motility inhibition 0 h [1]	Percentage of motility inhibition 24 h [2]	other results
Neoline	21%	1%	
Nordihydrocapsaicin			Percentage of motility inhibition 0 h (110 µM): 0%; Percentage of motility inhibition 24 h (110 µM): 4%
Notoginsenoside Fe	0%	0%	
Oxypaeoniflorin	0%	0%	
Penitrem A	0%	14%	
Phillyrin	0%	0%	
Phytol	13%	5%	
Protopine	0%	0%	
Pseudoginsenoside F11	0%	22%	
RKDVY [Thymopentin (acetate)]			Percentage of motility inhibition 0 h (0 h, 110 μM): 4%; Percentage of motility inhibition 24 h (24 h, 110 µM): 4%
RKDVY [Thymopentin]			Percentage of motility inhibition 0 h (0 h, 110 μM): 36%; Percentage of motility inhibition 24 h (24 h, 110 µM): 3%
Rebaudioside B	6%	1%	
Rebaudioside C	0%	6%	
Retrorsine	28%	9%	
SN‐38	34%	3%	
Schaftoside	0%	3%	
Strictosamide	0%	9%	
Tannic acid	3%	15%	
Tarasaponin VI	0%	0%	
Teicoplanin	3%	9%	
Theaflavin 3,3'‐digallate	0%	2%	
Theaflavin‐3'‐gallate	9%	0%	
